Experimental data: the NIST ThermoML archive (doi:10.1016/j.jct.2014.03.006)
± gives the expanded uncertainty stated by the source.

Assay: Boiling temperature at pressure P
Settings: Liquid, Ebulliometric method (Recirculating still)

Row | Boiling temperature at pressure P (24.5 kPa) | Boiling temperature at pressure P (34 kPa) | Boiling temperature at pressure P (43.5 kPa) | Boiling temperature at pressure P (53 kPa) | Boiling temperature at pressure P (62.5 kPa) | Boiling temperature at pressure P (72 kPa) | Boiling temperature at pressure P (81.5 kPa) | Boiling temperature at pressure P (91 kPa) | Boiling temperature at pressure P (101.3 kPa) | Boiling temperature at pressure P (110 kPa) | Boiling temperature at pressure P (119.5 kPa) | Boiling temperature at pressure P (129 kPa) | Boiling temperature at pressure P (138.5 kPa) | Boiling temperature at pressure P (148 kPa) | Boiling temperature at pressure P (157.5 kPa) | Boiling temperature at pressure P (167 kPa) | Boiling temperature at pressure P (176.5 kPa) | Boiling temperature at pressure P (186 kPa) | Boiling temperature at pressure P (190 kPa) | SMILES
1 | 100.4 ± 0.3 °C | 110 ± 0.3 °C | 117.2 ± 0.3 °C | 123.8 ± 0.3 °C | 129.5 ± 0.3 °C | 134.6 ± 0.3 °C | 139 ± 0.3 °C | 143.0 ± 0.4 °C | 147.6 ± 0.4 °C | 150.7 ± 0.4 °C | 154.0 ± 0.4 °C | 157.2 ± 0.4 °C | 160.0 ± 0.4 °C | 162.8 ± 0.4 °C | 165.2 ± 0.4 °C | 168 ± 0.4 °C | 170.2 ± 0.4 °C | 172.2 ± 0.4 °C | 173.1 ± 0.4 °C | CCC/C=C/C=O [(E)-2-hexenal]
2 | 89.0 ± 0.2 °C | 98.1 ± 0.3 °C | 105.2 ± 0.3 °C | 111.1 ± 0.3 °C | 116.4 ± 0.3 °C | 121 ± 0.3 °C | 124.8 ± 0.3 °C | 128.7 ± 0.3 °C | 132.5 ± 0.3 °C | 135.6 ± 0.3 °C | 138.6 ± 0.3 °C | 141.4 ± 0.3 °C | 144.2 ± 0.3 °C | 147.0 ± 0.3 °C | 149.4 ± 0.3 °C | 151.7 ± 0.3 °C | 154 ± 0.3 °C | 156.0 ± 0.3 °C | 156.8 ± 0.3 °C | CCOC(=O)C(C)CC (configuration not stated) [ethyl 2-methylbutanoate]
3 | 85.0 ± 0.3 °C | 94.2 ± 0.3 °C | 101.1 ± 0.3 °C | 107 ± 0.3 °C | 112.2 ± 0.3 °C | 116.8 ± 0.3 °C | 121 ± 0.3 °C | 124.7 ± 0.3 °C | 128.8 ± 0.3 °C | 131.8 ± 0.3 °C | 134.8 ± 0.3 °C | 137.5 ± 0.3 °C | 140.2 ± 0.3 °C | 143 ± 0.3 °C | 145.5 ± 0.3 °C | 147.7 ± 0.3 °C | 149.7 ± 0.3 °C | 151.8 ± 0.3 °C | 152.7 ± 0.3 °C | CCCCCC=O [hexanal]
